# Test system: 624824-186-R-J3-PDC multicell spheroids, viability
# Assay: Anticancer human tumor 624824-186-R-J3-PDC patient-derived colon adenocarcinoma cell line growth inhibition [PI3K]
# Conditions: for IC50: curve of first compound; for viability, T/C: stronger effect = lower value
# How it was run: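 Tumor cells were combined with HUVEC and MSCs into spheroids, then dosed with PI3K-inhibitor combinations over half-log ranges capped near clinical Cmax or 10 microM.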
# [1] = second compound 0.0316 µM, first compound 0.0316 µM
# [2] = second compound 0.0316 µM, first compound 0.1 µM
# [3] = second compound 0.0316 µM, first compound 0.316 µM
# [4] = second compound 0.0316 µM, first compound 1 µM
# [5] = second compound 0.1 µM, first compound 0.0316 µM
# [6] = second compound 0.1 µM, first compound 0.1 µM
# [7] = second compound 0.1 µM, first compound 0.316 µM
# [8] = second compound 0.1 µM, first compound 1 µM
# [9] = second compound 0.316 µM, first compound 0.0316 µM
# [10] = second compound 0.316 µM, first compound 0.1 µM
# [11] = second compound 0.316 µM, first compound 0.316 µM
# [12] = second compound 0.316 µM, first compound 1 µM
# [13] = second compound 1 µM, first compound 0.0316 µM
# [14] = second compound 1 µM, first compound 0.1 µM
# [15] = second compound 1 µM, first compound 0.316 µM
# [16] = second compound 1 µM, first compound 1 µM
# [17] = second compound 3.16 µM, first compound 0.0316 µM
# [18] = second compound 3.16 µM, first compound 0.1 µM
# [19] = second compound 3.16 µM, first compound 0.316 µM
# [20] = second compound 3.16 µM, first compound 1 µM
# [21] = second compound 10 µM, first compound 0.0316 µM
# [22] = second compound 10 µM, first compound 0.1 µM
# [23] = second compound 10 µM, first compound 0.316 µM
# [24] = second compound 10 µM, first compound 1 µM
# 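Further: spheroids exposed to agents for seven days before luminescence read.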
# 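Wherever viability, T/C is given: luminescent signal used as a stand-in for spheroid viability; percent viability relative to DMSO vehicle control wells taken as 100%.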
compound,measurement,setting,value
Cn1cnc2c(F)c(Nc3ccc(Br)cc3Cl)c(C(=O)NOCCO)cc21 + Cc1nc(NC(=O)N2CCCC2C(N)=O)sc1-c1ccnc(C(C)(C)C(F)(F)F)c1,IC50,second compound 0.0316 µM,1890 nM
same,IC50,second compound 0.1 µM,884 nM
same,IC50,second compound 0.316 µM,515 nM
same,IC50,second compound 1 µM,207 nM
same,IC50,second compound 3.16 µM,48.4 nM
same,IC50,second compound 10 µM,14.9 nM
same,"viability, T/C","second compound 0.0316 µM, first compound 0.00949 µM",116%
same,"viability, T/C","second compound 0.0316 µM, first compound 0.03 µM",104%
same,"viability, T/C","second compound 0.0316 µM, first compound 0.0949 µM",89%
same,"viability, T/C","second compound 0.0316 µM, first compound 0.3 µM",82.1%
same,"viability, T/C","second compound 0.0316 µM, first compound 0.949 µM",62.8%
same,"viability, T/C","second compound 0.0316 µM, first compound 3 µM",40.5%
same,"viability, T/C","second compound 0.1 µM, first compound 0.00949 µM",105%
same,"viability, T/C","second compound 0.1 µM, first compound 0.03 µM",98.1%
same,"viability, T/C","second compound 0.1 µM, first compound 0.0949 µM",94.6%
same,"viability, T/C","second compound 0.1 µM, first compound 0.3 µM",68%
same,"viability, T/C","second compound 0.1 µM, first compound 0.949 µM",50.9%
same,"viability, T/C","second compound 0.1 µM, first compound 3 µM",31.6%
same,"viability, T/C","second compound 0.316 µM, first compound 0.00949 µM",114%
same,"viability, T/C","second compound 0.316 µM, first compound 0.03 µM",98.2%
same,"viability, T/C","second compound 0.316 µM, first compound 0.0949 µM",85.5%
same,"viability, T/C","second compound 0.316 µM, first compound 0.3 µM",59.9%
same,"viability, T/C","second compound 0.316 µM, first compound 0.949 µM",37.7%
same,"viability, T/C","second compound 0.316 µM, first compound 3 µM",22.4%
same,"viability, T/C","second compound 1 µM, first compound 0.00949 µM",97.3%
same,"viability, T/C","second compound 1 µM, first compound 0.03 µM",91.5%
same,"viability, T/C","second compound 1 µM, first compound 0.0949 µM",67.7%
same,"viability, T/C","second compound 1 µM, first compound 0.3 µM",40.1%
same,"viability, T/C","second compound 1 µM, first compound 0.949 µM",24.9%
same,"viability, T/C","second compound 1 µM, first compound 3 µM",12.5%
same,"viability, T/C","second compound 3.16 µM, first compound 0.00949 µM",73.8%
same,"viability, T/C","second compound 3.16 µM, first compound 0.03 µM",60.4%
same,"viability, T/C","second compound 3.16 µM, first compound 0.0949 µM",36.2%
same,"viability, T/C","second compound 3.16 µM, first compound 0.3 µM",22.6%
same,"viability, T/C","second compound 3.16 µM, first compound 0.949 µM",17.3%
same,"viability, T/C","second compound 3.16 µM, first compound 3 µM",6.56%
same,"viability, T/C","second compound 10 µM, first compound 0.00949 µM",56%
same,"viability, T/C","second compound 10 µM, first compound 0.03 µM",42.2%
same,"viability, T/C","second compound 10 µM, first compound 0.0949 µM",21.4%
same,"viability, T/C","second compound 10 µM, first compound 0.3 µM",16%
same,"viability, T/C","second compound 10 µM, first compound 0.949 µM",5.42%
same,"viability, T/C","second compound 10 µM, first compound 3 µM",1.91%
CC1(C)CCC(CN2CCN(c3ccc(C(=O)NS(=O)(=O)c4ccc(NCC5CCOCC5)c([N+](=O)[O-])c4)c(Oc4cnc5[nH]ccc5c4)c3)CC2)=C(c2ccc(Cl)cc2)C1 + CC(Nc1ncnc2nc[nH]c12)c1cc2cccc(Cl)c2c(=O)n1-c1ccccc1,IC50,second compound 0.0316 µM,7770 nM
same,IC50,second compound 0.1 µM,7330 nM
same,IC50,second compound 0.316 µM,8720 nM
same,IC50,second compound 1 µM,7870 nM
same,IC50,second compound 3.16 µM,8480 nM
same,IC50,second compound 10 µM,9000 nM
same,"viability, T/C",[1],112%
same,"viability, T/C",[2],94.8%
same,"viability, T/C",[3],116%
same,"viability, T/C",[4],96.7%
same,"viability, T/C","second compound 0.0316 µM, first compound 3.16 µM",106%
same,"viability, T/C","second compound 0.0316 µM, first compound 10 µM",34.5%
same,"viability, T/C",[5],103%
same,"viability, T/C",[6],92.4%
same,"viability, T/C",[7],91.4%
same,"viability, T/C",[8],90.1%
same,"viability, T/C","second compound 0.1 µM, first compound 3.16 µM",111%
same,"viability, T/C","second compound 0.1 µM, first compound 10 µM",32.5%
same,"viability, T/C",[9],110%
same,"viability, T/C",[10],114%
same,"viability, T/C",[11],108%
same,"viability, T/C",[12],106%
same,"viability, T/C","second compound 0.316 µM, first compound 3.16 µM",117%
same,"viability, T/C","second compound 0.316 µM, first compound 10 µM",41.6%
same,"viability, T/C",[13],97.9%
same,"viability, T/C",[14],111%
same,"viability, T/C",[15],112%
same,"viability, T/C",[16],99.2%
same,"viability, T/C","second compound 1 µM, first compound 3.16 µM",117%
same,"viability, T/C","second compound 1 µM, first compound 10 µM",35%
same,"viability, T/C",[17],109%
same,"viability, T/C",[18],97.2%
same,"viability, T/C",[19],102%
same,"viability, T/C",[20],111%
same,"viability, T/C","second compound 3.16 µM, first compound 3.16 µM",125%
same,"viability, T/C","second compound 3.16 µM, first compound 10 µM",40.1%
same,"viability, T/C",[21],88.6%
same,"viability, T/C",[22],95.3%
same,"viability, T/C",[23],94.6%
same,"viability, T/C",[24],93.8%
same,"viability, T/C","second compound 10 µM, first compound 3.16 µM",108%
same,"viability, T/C","second compound 10 µM, first compound 10 µM",45.3%
CCN1CCN(Cc2ccc(Nc3ncc(F)c(-c4cc(F)c5nc(C)n(C(C)C)c5c4)n3)nc2)CC1 + Cc1nc(NC(=O)N2CCCC2C(N)=O)sc1-c1ccnc(C(C)(C)C(F)(F)F)c1,IC50,second compound 0.0316 µM,> 1000 nM
same,IC50,second compound 0.1 µM,> 1000 nM
same,IC50,second compound 0.316 µM,> 1000 nM
same,IC50,second compound 1 µM,> 1000 nM
same,IC50,second compound 3.16 µM,753 nM
same,IC50,second compound 10 µM,29.6 nM
same,"viability, T/C","second compound 0.0316 µM, first compound 0.00316 µM",106%
same,"viability, T/C","second compound 0.0316 µM, first compound 0.01 µM",99.3%
same,"viability, T/C",[1],106%
same,"viability, T/C",[2],108%
same,"viability, T/C",[3],100%
same,"viability, T/C",[4],94.2%
same,"viability, T/C","second compound 0.1 µM, first compound 0.00316 µM",106%
same,"viability, T/C","second compound 0.1 µM, first compound 0.01 µM",109%
same,"viability, T/C",[5],112%
same,"viability, T/C",[6],107%
same,"viability, T/C",[7],97.5%
same,"viability, T/C",[8],89.6%
same,"viability, T/C","second compound 0.316 µM, first compound 0.00316 µM",102%
same,"viability, T/C","second compound 0.316 µM, first compound 0.01 µM",116%
same,"viability, T/C",[9],97.4%
same,"viability, T/C",[10],94.6%
same,"viability, T/C",[11],88.1%
same,"viability, T/C",[12],73.1%
same,"viability, T/C","second compound 1 µM, first compound 0.00316 µM",101%
same,"viability, T/C","second compound 1 µM, first compound 0.01 µM",105%
same,"viability, T/C",[13],98.1%
same,"viability, T/C",[14],81.6%
same,"viability, T/C",[15],62.9%
same,"viability, T/C",[16],58.3%
same,"viability, T/C","second compound 3.16 µM, first compound 0.00316 µM",85.3%
same,"viability, T/C","second compound 3.16 µM, first compound 0.01 µM",92%
same,"viability, T/C",[17],77.8%
same,"viability, T/C",[18],57%
same,"viability, T/C",[19],47.9%
same,"viability, T/C",[20],51.6%
same,"viability, T/C","second compound 10 µM, first compound 0.00316 µM",64.6%
same,"viability, T/C","second compound 10 µM, first compound 0.01 µM",59.6%
same,"viability, T/C",[21],50.4%
same,"viability, T/C",[22],41.5%
same,"viability, T/C",[23],36.6%
same,"viability, T/C",[24],48.6%
